Data published in ChEMBL document CHEMBL2074502, “Effect of furanocoumarin derivatives in grapefruit juice on the uptake of vinblastine by Caco-2 cells and on the activity of cytochrome P450 3A4” (Br J Pharmacol, 2000).

Target: ATP-dependent translocase ABCB1 (Homo sapiens, UniProt P08183)
Assay: TP_TRANSPORTER: increase uptake (Vinblastine: 0.01 uM) in Caco-2 cells
Assay type: functional, cell-based

Chain of ATP-dependent translocase ABCB1 (P08183 whole entry): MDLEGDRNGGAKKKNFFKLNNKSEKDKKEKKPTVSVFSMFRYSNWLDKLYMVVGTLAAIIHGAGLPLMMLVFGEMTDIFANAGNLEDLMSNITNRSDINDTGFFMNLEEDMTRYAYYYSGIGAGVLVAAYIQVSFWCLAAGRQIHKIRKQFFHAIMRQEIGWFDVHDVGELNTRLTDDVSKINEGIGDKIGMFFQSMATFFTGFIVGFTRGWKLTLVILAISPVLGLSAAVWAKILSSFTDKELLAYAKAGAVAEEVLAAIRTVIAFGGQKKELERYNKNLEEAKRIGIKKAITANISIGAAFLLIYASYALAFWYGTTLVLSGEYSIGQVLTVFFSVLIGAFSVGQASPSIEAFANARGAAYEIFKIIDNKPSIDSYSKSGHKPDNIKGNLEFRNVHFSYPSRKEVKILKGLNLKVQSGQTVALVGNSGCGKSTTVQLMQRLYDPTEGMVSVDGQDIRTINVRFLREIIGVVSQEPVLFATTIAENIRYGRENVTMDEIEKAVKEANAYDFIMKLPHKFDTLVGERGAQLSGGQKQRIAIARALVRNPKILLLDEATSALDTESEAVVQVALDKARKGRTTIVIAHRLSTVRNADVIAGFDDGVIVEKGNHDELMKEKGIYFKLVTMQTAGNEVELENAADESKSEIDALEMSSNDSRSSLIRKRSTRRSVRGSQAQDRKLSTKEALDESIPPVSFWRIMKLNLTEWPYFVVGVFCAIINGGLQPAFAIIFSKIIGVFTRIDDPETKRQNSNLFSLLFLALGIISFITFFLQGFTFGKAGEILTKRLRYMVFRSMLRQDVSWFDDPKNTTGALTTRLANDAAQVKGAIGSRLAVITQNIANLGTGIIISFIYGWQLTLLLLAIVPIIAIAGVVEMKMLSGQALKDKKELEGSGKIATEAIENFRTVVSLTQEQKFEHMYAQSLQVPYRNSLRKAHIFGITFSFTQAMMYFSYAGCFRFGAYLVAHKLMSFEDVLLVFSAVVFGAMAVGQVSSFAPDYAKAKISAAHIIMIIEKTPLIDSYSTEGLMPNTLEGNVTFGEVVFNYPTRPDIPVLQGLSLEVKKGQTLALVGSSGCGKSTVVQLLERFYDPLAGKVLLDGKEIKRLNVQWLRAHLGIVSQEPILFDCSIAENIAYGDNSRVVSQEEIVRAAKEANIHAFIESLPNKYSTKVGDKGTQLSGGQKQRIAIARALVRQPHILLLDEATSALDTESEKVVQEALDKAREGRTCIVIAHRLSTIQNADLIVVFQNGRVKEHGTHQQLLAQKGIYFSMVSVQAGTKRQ

SMILES	EC200
C/C(=C\COc1c2ccoc2cc2oc(=O)ccc12)CC[C@@H](O)C(C)(C)O	0.04 µM
CC(C)=CCC/C(C)=C/COc1c2ccoc2cc2oc(=O)ccc12 [BERGAMOTTIN]	0.035 µM
COc1c2ccoc2cc2oc(=O)ccc12 [BERGAPTEN]	0.05 µM
O=c1ccc2c(O)c3ccoc3cc2o1 [BERGAPTOL]	0.3 µM
C/C(=C\COc1c2ccoc2cc2oc(=O)ccc12)CCC(OC(C)(C)C(O)CC/C(C)=C/COc1c2ccoc2cc2oc(=O)ccc12)C(C)(C)O (stereo not given) [FC726]	0.035 µM
